Measurements published in patent US7378401B2, “Use of Fosfluridine Tidoxil (FT) for the treatment of intraepithelial proliferative diseases” (Heidelberg Pharma GmbH, priority 2006, dated 2008).
“Also recorded” adds a separate entry of the source. Like-named read-outs stand apart in the source and are kept apart here.

Experiments:
[1] = test system: bone marrow cells; assay: bone marrow toxicity after intravenous doses; format: in vivo; details: single and repeated intravenous doses
[2] = mice, up to highest single p.o. dose tested of 3.8 g/kg
[3] = test system: actinic keratosis; assay: oral Fosfluridine Tidoxil in patients with advanced actinic keratosis; format: in vivo, human
Experimental: A person was suffering from an advanced actinic keratosis since more than 3 years. In this time they received different types of topical treatment, such as Solaraze (3% Diclofenac) or Aldara (Imiquimod). Thereafter they were treated with 50 mg of Fosfluridine Tidoxil (1 capsule). The patient received 3 cycles each cycle consisting of a once daily oral administration over 7 days followed by a treatment free week (two weeks per cycle).
A patient was diagnosed to have an actinic keratosis 15 years before and was now in an advanced stage. In the years before taking Fosfluridine Tidoxil they were, in essence, treated with Solaraze. Since the therapeutic benefit appears to be limited they then received 100 mg of oral Fosfluridine Tidoxil (2 capsules of 50 mg) over 3 cycles (as mentioned above).
A person with a first diagnosis of Actinic keratosis 1.6 years before use of Fosfluridine Tidoxil was treated topically, however, eventually without therapeutic benefit. […] They then received 100 mg of oral Fosfluridine Tidoxil (2 capsules of 50 mg) over 3 cycles (as described above). […] This patient was not treated over the next four months with any topical.
A patient suffered from Actinic keratosis for more than 7 years and was now in an advanced stage. […] […], then, received 100 mg of oral Fosfluridine Tidoxil (2 capsules of 50 mg) over 3 cycles (as de-scribed above). […] In the next 2 month this patient was not treated with any topical.

[4] = test system: primary human keratinocytes
[5] = oral administration, rhesus monkeys
[6] = test system: SCLC xenograft; details: mice, dose-dependent, maximum inhibition
[7] = in vivo
Text: One of the drawbacks of using intravenously administered 5-Fluorouracil is bone marrow suppression, expressed clinically by increased susceptibility to infections and fatigue.

[8] = test system: CFU-E and CFU-GM; details: doses manifold higher than highly toxic doses of FUrd
[9] = man
[10] = oral administration, mice
[11] = after intravenous administration; cited from earlier work

Compound	bone marrow toxicity [1]	mortality in acute tolerability study [2]	reduction of lesion count ([3]; 50 mg oral once daily, 3 cycles (7 days on, 7 days off), plus one month of observation)	histological stage of lesions ([3]; 50 mg oral once daily, 3 cycles, plus one month of observation, most severe area)	histological stage of lesions ([3]; 100 mg oral once daily, 3 cycles, plus one month of observation, listed as Fosfluridine Tidoxil)	outcome in follow-up without any topical treatment ([3]; after 100 mg oral, 3 cycles, next 2-4 months without topical, listed as Fosfluridine Tidoxil)	effectiveness in proliferating compared to non-proliferating keratinocytes [4]	plasma half-life [5]	inhibition of SCLC xenograft tumor growth [6]	distribution to the bone marrow [7]	suppression of in vitro colony formation of CFU-E and CFU-GM [8]	plasma concentrations of 5-FU and 5-FUrd after administration of FT [9]	plasma half-life ([9]; oral administration)	plasma half-life [10]	drug eliminated within the first hour [11]
O=c1[nH]c(=O)n([C@@H]2O[C@H](CO)[C@@H](O)[C@H]2O)cc1F [Example 5-FUrd, 5-Fluorouridine, reference compound]	dose-dependently suppressed bone marrow cells														
CCCCCCCCCCCCSCC(COP(=O)([O-])OCC1OC(n2cc(F)c(=O)[nH]c2=O)C(O)C1O)OCCCCCCCCCC.[Na+] (stereo not shown) [FT, (5-fluorouridine)-5′-phosphoric acid (3-dodecylmercapto-2-decyloxy)propylester, Na-salt]	did not result in bone marrow toxicity	no animal died	34%	reduced from stage 3 to stage 1	decreased from class 2 to class 1; also recorded: reduced from class 3 to class 2; also recorded: reduced from 3 to 1	all actinic keratoses have disappeared; also recorded: all actinic lesions have disappeared	far more effective in proliferating primary human keratinocytes	8 to 10 h	up to 82%	not distributed to the bone marrow	did not suppress	negligible	> 20 h	4 to 5 h	
O=c1[nH]cc(F)c(=O)[nH]1 [Example 5-FU, 5-Fluorouracil]															Over 90%
